Laboratory results reported in patent US20050074879A1, “Antisense oligonucleotide modulation of STAT3 expression” (priority 2000, published 2005).
Oligonucleotides are written 5' to 3', each unit as a sugar letter and its base; * is a phosphorothioate linkage, no mark a phosphodiester; rarer units and linkages stand in square brackets, end groups in braces. Plain capitals give the bases only. e = 2'-O-(2-methoxyethyl) (MOE); [5mC] = 5-methylcytosine; d = 2'-deoxy (DNA)

Tests used:
Assay type in all cases: cell-based
[1] = system: Human STAT3 mRNA; assay: Human STAT3 mRNA dose response in T-24 cells, real-time PCR with PPS 199 (Table 18); settings: 16 hours, − decrease, + increase relative to untreated control
Excerpt: The transitional cell bladder carcinoma cell line T-24 was obtained from the American Type Culture Collection (ATCC) (Manassas, Va.). T-24 cells were routinely cultured in complete McCoy's 5A basal media (Gibco/Life Technologies, Gaithersburg, Md.) supplemented with 10% fetal calf serum (Gibco/Life Technologies, Gaithersburg, Md.), penicillin 100 units per mL, and streptomycin 100 micrograms per mL (Gibco/Life Technologies, Gaithersburg, Md.). Cells were routinely passaged by trypsinization and dilution when they reached 90% confluence. Cells were seeded into 96-well plates (Falcon-Primaria #3872) at a density of 7000 cells/well for use in RT-PCR analysis.
Control oligonucleotides used were ISIS 129695 ([…], SEQ ID NO: 391), ISIS 129694 ([…] SEQ ID NO: 392), ISIS 129690 ([…] SEQ ID NO: 393), ISIS 129686 ([…] SEQ ID NO: 394), ISIS 116847 ([…], SEQ ID NO: 395) and ISIS 113529 ([…] SEQ ID NO: 396). These are universal scrambled control oligonucleotides.
(§1) T-24 cells were treated with 18.75, 37.5, 75, or 150 nM of oligonucleotide mixed with 3 ug/mL LIPOFECTIN per 100 nM oligonucleotide as described by other examples herein. Untreated cells served as controls. Following 16 hours of treatment, RNA was prepared from cells for subsequent real-time PCR analysis.
Human STAT3 mRNA expression levels were quantitated by real-time PCR using primer probe set PPS 199 and gene target quantities were normalized using Ribogreen as described in other examples herein. A “−” or “+” designation indicates a decrease or increase of STAT 3 mRNA expression, respectively, relative to untreated control cells.

[2] = system: Human STAT3 mRNA; assay: Human STAT3 mRNA dose response in T-24 cells, real-time PCR with PPS 2033 (Table 19); settings: 16 hours, − decrease, + increase relative to untreated control
Description: The dose-response was repeated in T-24 cells and gene target quantities were measured using a different primer-probe set, called PPS 2033 herein. PPS 2033 comprises probes and primers to human STAT3 were designed to hybridize to a human STAT3 sequence, using published sequence information (incorporated herein as SEQ ID NO: XXX). For PPS 2033 the PCR primers were: forward primer: GAGGCCCGCCCAACA (SEQ ID NO: 397) reverse primer: […] (SEQ ID NO: 398) and the PCR probe was: FAM-CTGCCTAGATCGGC-TAMRA (SEQ ID NO: 399) where FAM is the fluorescent reporter dye and TAMRA is the quencher dye. Gene target quantities obtained by real time RT-PCR are normalized by quantifying total RNA using RiboGreen™ (Molecular Probes, Inc. Eugene, Oreg.). Control oligonucleotides used were ISIS 129695 (SEQ ID NO: 391), ISIS 129694 (SEQ ID NO: 392), ISIS 129690 (SEQ ID NO: 393), ISIS 129686 (SEQ ID NO: 394), ISIS 116847 (SEQ ID NO: 395) and ISIS 113529 (SEQ ID NO: 396).
as §1
Human STAT3 mRNA expression levels were quantitated by real-time PCR using primer probe set PPS 2033 and gene target quantities were normalized using Ribogreen as described in other examples herein. A “−” or “+” designation indicates a decrease or increase of STAT 3 mRNA expression, respectively, relative to untreated control cells.

[3] = system: Human STAT3 mRNA; assay: Inhibition of human STAT3 mRNA levels in A549 cells, 75 nM, real-time PCR (Table 13); settings: 75 nM oligonucleotide with LIPOFECTIN, real-time PCR PPS 199, percent inhibition relative to untreated control cells, average of 2 experiments
Summary of the method: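 A549 cells at 65–75% confluency were transfected in duplicate with 75 nM oligonucleotide plus […] Lipofectin for 4–7 h at 37° C and harvested 16–24 h later. STAT3 mRNA was quantified by real-time RT-PCR with primer-probe set PPS 199 and normalized to RiboGreen total RNA. Inhibition is relative to untreated controls.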

**Q.** Which results are given for “113529 (antisense CTCTTACTGTGCTGTGGACA; all phosphorothioate, sugars by position and methylation of C not given here; 2'-MOE wings and deoxy gap) [compound 113529]”?
**A.** Percent change of STAT3 expression using PPS 199 ([1]; 18.75 nM oligonucleotide): +1%; Percent change of STAT3 expression using PPS 199 ([1]; 37.5 nM oligonucleotide): −1%; Percent change of STAT3 expression using PPS 199 ([1]; 75 nM oligonucleotide): −11%; Percent change of STAT3 expression using PPS 199 ([1]; 150 nM oligonucleotide): −26%; Percent change of STAT3 expression using PPS 2033 ([2]; 18.75 nM oligonucleotide): +1%; Percent change of STAT3 expression using PPS 2033 ([2]; 37.5 nM oligonucleotide): +12%; Percent change of STAT3 expression using PPS 2033 ([2]; 75 nM oligonucleotide): −11%; Percent change of STAT3 expression using PPS 2033 ([2]; 150 nM oligonucleotide): −24%

**Q.** Which results are given for “116847 (antisense CTGCTAGCCTCTGGATTTGA; all phosphorothioate, sugars by position and methylation of C not given here; 2'-MOE wings and deoxy gap) [compound 116847]”?
**A.** Percent change of STAT3 expression using PPS 199 ([1]; 18.75 nM oligonucleotide): +7%; Percent change of STAT3 expression using PPS 199 ([1]; 37.5 nM oligonucleotide): +4%; Percent change of STAT3 expression using PPS 199 ([1]; 75 nM oligonucleotide): +8%; Percent change of STAT3 expression using PPS 199 ([1]; 150 nM oligonucleotide): +5%; Percent change of STAT3 expression using PPS 2033 ([2]; 18.75 nM oligonucleotide): +45%; Percent change of STAT3 expression using PPS 2033 ([2]; 37.5 nM oligonucleotide): +33%; Percent change of STAT3 expression using PPS 2033 ([2]; 75 nM oligonucleotide): +22%; Percent change of STAT3 expression using PPS 2033 ([2]; 150 nM oligonucleotide): −2%

**Q.** Which “Percent change of STAT3 expression using PPS 199” value (“Percent change … using PPS 199” below) ([1]; 18.75 nM oligonucleotide) does the source give for “129694 (antisense GTACAGTTATGCGCGGTAGA; all phosphorothioate, sugars by position and methylation of C not given here; 2'-MOE wings with deoxy gap) [compound 129694]” here?
**A.** +4%

**Q.** And the “Percent change … using PPS 199” value ([1]; 37.5 nM oligonucleotide)?
**A.** −3%

**Q.** What about the “Percent change … using PPS 199” value ([1]; 75 nM oligonucleotide) of the same substance?
**A.** −4%

**Q.** What about the “Percent change … using PPS 199” value ([1]; 150 nM oligonucleotide) of the same substance?
**A.** −10%

**Q.** And the “Percent change of STAT3 expression using PPS 2033” value (shortened to “Percent change … using PPS 2033”) ([2]; 18.75 nM oligonucleotide)?
**A.** +19%

**Q.** What about the “Percent change … using PPS 2033” value ([2]; 37.5 nM oligonucleotide) of the same substance?
**A.** −1%

**Q.** What about the “Percent change … using PPS 2033” value ([2]; 75 nM oligonucleotide) of the same substance?
**A.** +7%

**Q.** And the “Percent change … using PPS 2033” value ([2]; 150 nM oligonucleotide)?
**A.** +2%

**Q.** What does the source list for “129695 (antisense TTCTACCTCGCGCGATTTAC; all phosphorothioate, sugars by position and methylation of C not given here; 2'-MOE wings with deoxy gap) [compound 129695]”?
**A.** Percent change of STAT3 expression using PPS 199 ([1]; 18.75 nM oligonucleotide): +5%; Percent change of STAT3 expression using PPS 199 ([1]; 37.5 nM oligonucleotide): +2%; Percent change of STAT3 expression using PPS 199 ([1]; 75 nM oligonucleotide): +8%; Percent change of STAT3 expression using PPS 199 ([1]; 150 nM oligonucleotide): 0%; Percent change of STAT3 expression using PPS 2033 ([2]; 18.75 nM oligonucleotide): −4%; Percent change of STAT3 expression using PPS 2033 ([2]; 37.5 nM oligonucleotide): +2%; Percent change of STAT3 expression using PPS 2033 ([2]; 75 nM oligonucleotide): +8%; Percent change of STAT3 expression using PPS 2033 ([2]; 150 nM oligonucleotide): +3%

**Q.** What does the source list for “337247 (antisense eT*eT*eT*eT*eG*d[5mC]*dA*dT*dG*dA*dT*dG*dT*dA*dA*e[5mC]*e[5mC]*eA*e[5mC]*eT) [compound 337247]”?
**A.** Percent change of STAT3 expression using PPS 199 ([1]; 18.75 nM oligonucleotide): −23%; Percent change of STAT3 expression using PPS 199 ([1]; 37.5 nM oligonucleotide): −43%; Percent change of STAT3 expression using PPS 199 ([1]; 75 nM oligonucleotide): −62%; Percent change of STAT3 expression using PPS 199 ([1]; 150 nM oligonucleotide): −75%; % Inhib (inhibition of human STAT 3 mRNA levels) [3]: 87%; Percent change of STAT3 expression using PPS 2033 ([2]; 18.75 nM oligonucleotide): +17%; Percent change of STAT3 expression using PPS 2033 ([2]; 37.5 nM oligonucleotide): −21%; Percent change of STAT3 expression using PPS 2033 ([2]; 75 nM oligonucleotide): −53%; Percent change of STAT3 expression using PPS 2033 ([2]; 150 nM oligonucleotide): −69%

**Q.** With “337270 (antisense eT*eT*eG*eG*e[5mC]*dT*dT*d[5mC]*dT*d[5mC]*dA*dA*dG*dA*dT*eA*e[5mC]*e[5mC]*eT*eG) [compound 337270]” as the substance, how does the “Percent change … using PPS 199” value ([1]; 18.75 nM oligonucleotide) read?
**A.** −29%

**Q.** What about the “Percent change … using PPS 199” value ([1]; 37.5 nM oligonucleotide) of the same substance?
**A.** −41%

**Q.** And the “Percent change … using PPS 199” value ([1]; 75 nM oligonucleotide)?
**A.** −67%

**Q.** What about the “Percent change … using PPS 199” value ([1]; 150 nM oligonucleotide) of the same substance?
**A.** −87%

**Q.** And the “% Inhib (inhibition of human STAT 3 mRNA levels)” value [3]?
**A.** 89%

**Q.** What about the “Percent change … using PPS 2033” value ([2]; 18.75 nM oligonucleotide) of the same substance?
**A.** −16%

**Q.** And the “Percent change … using PPS 2033” value ([2]; 37.5 nM oligonucleotide)?
**A.** −27%

**Q.** And the “Percent change … using PPS 2033” value ([2]; 75 nM oligonucleotide)?
**A.** −67%

**Q.** What about the “Percent change … using PPS 2033” value ([2]; 150 nM oligonucleotide) of the same substance?
**A.** −87%
